The values that follow come from US20180111991A1, “MODULATORS OF ACTIVIN AND METHODS FOR MODULATING IMMUNE RESPONSES AND T FOLLICULAR HELPER CELLS” (LA JOLLA INSTITUTE FOR ALLERGY AND IMMUNOLOGY, priority 2014, published 2018).

“Also recorded” adds a separate entry of the source.

Format in all cases: cell-based
For assay [1], the system named is human naïve CD4 T cells. Description: In vitro Tfh differentiation, PD-1 and CXCR5 expression by FACS. The method, then: (§1) For surface staining, primary-staining panels used for phenotypic analysis or for cell sorting known in the art were used. For the intranuclear staining: cells were treated with the FoxP3 Fixation/Permeabilization kit (eBioscience) and stained in Permeabilization buffer (eBioscience). For cytokine staining: day 3 or day 5 in vitro differentiated cells (specified in the main text or in figure legends) cells were stimulated for 5 hours at 37° C. with Phorbol 12-myristate 13-acetate (PMA, 25 ng/ml) and Ionomycin (1 μg/ml) in the presence of Brefeldin A (5 μg/ml). Cells were fixed with PBS 2% FBS, 1% PFA and permeabilized with PBS 2% FBS, 0.5% Saponin (from quillaja bark, Sigma-Aldrich). Samples were analyzed on a LSR Fortessa Cell Analyzer (BD, Bioscience). Flow cytometry data were analyzed with FlowJo (Tree Star). For cell sorting, cells were sorted using sorted using a FACS Aria (BD, Bioscience).
(§2) Unless differently specified, naïve CD4^+ T cells were enriched from PBMCs by magnetic bead negative selection with the Naïve CD4^+ T Cell Isolation Kit (Stem Cell Technologies). Purity (CD4^+CD45RA^+) was 90% or higher. Cells (7.5×10^4 cells/well) were activated by Dynabeads Human T-Activator CD3/CD28 (2 μl/well, Life Technologies) and cultured with recombinant human/mouse/rat activin A (50 ng/ml or 100 ng/ml), recombinant human IL-12 (5 ng/ml), recombinant human TGFβ (1 ng/ml), recombinant human IL-23 (10 ng/ml) or recombinant human IL-35 (10 ng/ml) in the presence of and recombinant human IL-7 (4 ng/ml) in AIM-V medium (Life Technologies). All cytokines were from R&D System and Peprotech. The 14 kDa mature human beta A chain of human activin A shares 100% amino acid sequence identity with bovine, feline, mouse, porcine, and rat beta A. Phenotype was quantified after 3 or 5 days, as specified in the main text of Figure legends. Similar results were obtained when using Treg-depleted FACS sorted naïve CD4 T cells, in which cells were sorted from total PBMCs by flow cytometry as CD19^−CD8^−CD14^−CD16^− CD4^+CD45RO^−CD25^− cells. For experiments quantifying supernatant CXCL13 concentration, cells were activated by plate-bound anti-human CD3 (5 μg/ml, BD) and ICOS-L (5 μg/ml, recombinant human B7-H2, R&D). CXCL13 concentrations were determined via human CXCL13 DuoSet ELISA (R&D) on supernatants harvested after 5 days of in vitro culture. For blocking experiments, cells were cultured with anti-activin A blocking mAb (5 μg/ml, clone 69403, R&D), anti-TGFβ mAb (100 μg/ml, clone 1D11.16.8, BioXcell), or equivalent concentration of mouse IgG1 isotype mAb (BioXcell). For blockade of IL-2, cells were cultured with anti-IL-2 blocking mAb (10 μg/ml, clone 5334, R&D) or mouse IgG1 isotype mAb (BioXcell).

Assay [2] has as its system human naïve CD4 T cells. Briefly: BCL6 intranuclear expression by FACS on in vitro differentiated cells. The settings on record: for induction of Bcl6+CXCR5+ cells: titration with or without IL-12 (FIG. 11). As to the method:
as §1, §2

In assay [3] the test system is human naïve CD4 T cells. Description: CCR7 expression by FACS on in vitro differentiated cells. The settings on record: for CCR7 downregulation (CCR7+CXCR5+ cells): with or without IL-12 (FIG. 10); for CCR7 expression (MFI): activated CD4 T cells, day 5. As to the method: as §1, §2
The subject of assay [4] is human naïve CD4 T cells. Briefly: RNA sequencing and GSEA of in vitro differentiated CD4 T cells. The settings on record: for genes differentially upregulated, activin A+IL-12 versus TGFβ+IL-12: each cytokine combined with IL-12, RNA-seq day 3; for expression of bona fide GC Tfh signature genes (GSEA): activin A or activin A+IL-12 versus beads, IL-12. The method, then:
Differentiation of naïve CD4^+ T cells with activin A and/or IL-12 was described above. Naïve CD4 T cells from 4 or more donors were cultured with the following conditions: beads only (beads), IL-12, activin A (100 ng/ml), activin A (100 ng/ml)+IL-12, TGFβ, TGFβ+IL-12. After 3 days of in vitro culture, live CD4^+ T cells were sorted by FACS. Total RNA was purified using miRNAeasy Mini kit (Qiagen). Standard quality control steps were included to determine total RNA quality using Agilent Bioanalyzer (RNA integrity number (RIN)>8.5; Agilent RNA 6000 Nano Kit, USA) and quantity using a nanoliter spectrophotometer (Nanodrop, Thermofisher, USA). For every sample, 500 ng of purified total RNA was prepared into mRNA libraries, according to manufacturer's instructions, using the Truseq Stranded mRNA Library Prep Kit (Illumina, RS-122-2103). The resulting libraries were deep sequenced, using the Illumina HiSeq2500 system in rapid run mode, to obtain between 6 to 7 millions of 50-bp length single-end reads per library.
The single-end reads that passed Illumina filters were filtered for reads aligning to tRNA, rRNA, adapter sequences, and spike-in controls. The reads were then aligned to UCSC hg19 reference genome using TopHat^55(v 1.4.1). DUST scores were calculated with PRINSEQ Lite^56 (v 0.20.3) and low-complexity reads (DUST >4) were removed from the BAM files. The alignment results were parsed via the SAMtools^57 to generate SAM files. Read counts to each genomic feature were obtained with the htseq-count program^58 (v 0.6.0) using the “union” option. After removing absent features (zero counts in all samples), the raw counts were converted to RPKM value followed by quantile normalization via R library ‘aroma.light’ ^59. Then the quantile normalized RPKM values were filtered by setting a cutoff value of 1 and analyzed with the Multiplot module in GenePattern suite (http://www.broadinstitute.org/cancer/software/genepattern/) to generate the Volcano, Heatmap and Expression plots. Meanwhile the filtered raw counts were imported to R/Bioconductor package DESeq2^60 (v 3.1) to normalize counts and identify differentially expressed genes among conditions.
The tonsil GC Tfh gene set was generated from previously published microarray data^38 and defined by genes with more than two-fold higher expression in GC-Tfh cells (CD4^+CD45RO^+PD-1^hiCXCR5^hi) compared to non-Tfh cells (CD4^+CD45RO^+PD-1^−CXCR5^−). […] The signal-to-noise metric was used for ranking the genes in the RNA-seq expression datasets and 10^5 cycles of permutations on the phenotype labels were performed to determine the normalized enrichment score (NES).

For assay [5], the system named is human naïve CD4 T cells. Description: FoxP3 induction by FACS in in vitro differentiated cells. The settings on record: for FoxP3 expression (FoxP3+ cells): with or without IL-12, day 5. The method, then: as §1
Unless differently specified, naïve CD4^+ T cells were enriched from PBMCs by magnetic bead negative selection with the Naïve CD4^+ T Cell Isolation Kit (Stem Cell Technologies). Purity (CD4^+CD45RA^+) was 90% or higher. […] The 14 kDa mature human beta A chain of human activin A shares 100% amino acid sequence identity with bovine, feline, mouse, porcine, and rat beta A. Phenotype was quantified after 3 or 5 days, as specified in the main text of Figure legends. […] For experiments quantifying supernatant CXCL13 concentration, cells were activated by plate-bound anti-human CD3 (5 μg/ml, BD) and ICOS-L (5 μg/ml, recombinant human B7-H2, R&D). CXCL13 concentrations were determined via human CXCL13 DuoSet ELISA (R&D) on supernatants harvested after 5 days of in vitro culture. […]

Where [6] appears, read: activin A alone, anti CD3/CD28 coated beads.

As to TGFβ, the “induction of CXCR5 and PD-1 expression” value in assay [1] (TGFβ with IL-12, serum free media) is “can synergize with IL-12 to induce CXCR5 and PD-1 expression”. The “induction of Bcl6+CXCR5+ cells” value in assay [2] was “No detectable induction of Bcl6”. In assay [3], the “CCR7 downregulation (CCR7+CXCR5+ cells)” value is recorded as “influence CCR7 downregulation”. Besides, the “genes differentially upregulated, activin A+IL-12 versus TGFβ+IL-12” value in assay [4] is reported as 45 genes. The “FoxP3 expression (FoxP3+ cells)” value in assay [5] was “induce high FoxP3 expression; also recorded: preferentially induces FoxP3”.

Take “activin A: commercial recombinant cytokine, homodimer of the INHBA gene product (inhibin beta A)”: in assay [1] (setting [6]), the CXCR5 expression entry is on record as “some CXCR5 expression” and the PD-1 induction entry is “massive PD-1 induction”. In addition, in assay [1] (activin A combined with TGFβ), the “PD-1 and CXCR5 expression (PD1+CXCR5+ cells), additive or synergistic effect” value was “no synergy between TGFβ and activin A; also recorded: neither PD-1 nor CXCR5 expression changed when activin A and TGFβ were combined”. For the same substance, the “retention of CXCR5 and PD-1 expression over time” value in assay [1] (activin A in combination with IL-12, monitored 0-10 days) is on record as “retained”. In assay [1] (combined with IL-12), the “capacity to regulate differentiation of PD-1+CXCR5+ cells, TGFβ compared with activin A” value was “induced similar levels of CXCR5 and PD-1 expression compared to TGFβ”. For the same substance, in assay [1] (in combination with IL-12), the “coexpression of PD-1 and CXCR5 (PD-1+CXCR5+ cells)” value is “dramatic increase in the coexpression of PD-1 and CXCR5; also recorded: synergistic effect with IL-12”. Besides, the “PD-1 and CXCR5 expression on activated naïve CD4 T cells” value in assay [1] (serum free conditions, activin A titration) was “induces both PD-1 and CXCR5 expression on activated naïve CD4 T cells in a dose dependent fashion”. Further, the Bcl6 protein expression entry in assay [2] (activin A with or without IL-12, FACS intranuclear staining (FIG. 8C)) is recorded as “significant expression of Bcl6, particularly when combined with IL-12”. Also, the BCL6 expression entry in assay [2] (activin A+IL-12, day 5 (FIG. 2F)) was “a fraction of CD4 T cells differentiated with activin A+IL-12 increased expression of BCL6”. In addition, the “induction of Bcl6+CXCR5+ cells” value in assay [2] was “No detectable induction of Bcl6”. For the same substance, in assay [3], the “CCR7 expression (MFI)” value is “decreased CCR7 expression” and the “CCR7 downregulation (CCR7+CXCR5+ cells)” value is “influence CCR7 downregulation”. For the same substance, the “CCR7 expression (MFI)” value in assay [3] (listed as Activin A) is listed as “sufficient to decrease CCR7 expression”. Also, the “regulation of Tfh-signature genes LIF, LTA, PDCD1, TNF” value in assay [4] (RNA-seq day 3, heat-map (FIG. 2K)) was “major factor regulating several Tfh-signature genes such as LIF, LTA, PDCD1, and TNF”. For the same substance, in assay [4], the “expression of bona fide GC Tfh signature genes (GSEA)” value is listed as “imprinted with bona fide GC Tfh signature genes” and the “genes differentially upregulated, activin A+IL-12 versus TGFβ+IL-12” value is 35 genes. Also, the “expression of bona fide GC Tfh signature genes (GSEA)” value in assay [4] (listed as Activin A) is given as “contributed more than IL-12 to driving expression of bona fide GC Tfh associated genes”. Further, in assay [4] (activin A+IL-12, RNA-seq day 3), the “genes selectively upregulated versus beads only” value is listed as 116 genes and the “genes suppressed versus beads only” value is 60 genes. In addition, the “FoxP3 upregulation (FoxP3+CXCR5+ cells)” value in assay [5] (activin A with recombinant TGFβ) is “synergize in inducing FoxP3 upregulation”. Also, the “FoxP3 expression (FoxP3+ cells)” value in assay [5] was “but not activin A was found to induce high FoxP3 expression; also recorded: less potent than TGFβ in driving the generation of FoxP3^+ cells; also recorded: induced less FoxP3 expression”.
